Values quoted from earlier work, collected in patent US20220175695A1, “FORTIFICANT COMPOSITION” (Conopco, Inc., d/b/a UNILEVER, priority 2019, published 2022).

Conditions: without the composition

time Vitamin A is stable in the presence of water: < 4 h
Substance: Vitamin A
